Experimental data taken from the supplement of paper PMC7224384.

Columns and labels:
[1] = tested on: MDA-MB-453; assay: drug sensitivity score (DSS), single agent (DSS (weighted AUC score)); higher = more sensitive (stronger viability decrease); extreme values may be limits of the assay; settings: BLU9931 0 nM; 72 h
Outline: (§1)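 Drug sensitivity scores come from a weighted area under a four-parameter logistic fit to percent viability, normalised per plate to control wells. Viability was based on cellular ATP read with CellTiterGlo 2.0 after 72 h at 37 °C, 5% CO2. Each 384-well plate carried FIMM Oncology set compounds in singlicate at five 10-fold dilutions, with 2000 MDA-MB-453 cells per well in medium with or without an FGFR4 inhibitor at 100 nM final.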

[2] = tested on: MDA-MB-453; assay: drug sensitivity score (DSS), in combination with BLU9931 (DSS (weighted AUC score)); higher = more sensitive (stronger viability decrease); extreme values may be limits of the assay; settings: BLU9931 100 nM; 72 h
Outline: as §1

SMILES	drug sensitivity score [1]	drug sensitivity score [2]
CC(C)(C)C[C@@H]1N[C@@H](C(=O)N[C@H]2CC[C@H](O)CC2)[C@H](c2cccc(Cl)c2F)[C@]12C(=O)Nc1cc(Cl)ccc12	0.9	0
CC(C)(C)c1cc(NC(=O)Nc2ccc(Oc3ccnc4[nH]c(=O)cnc34)cc2F)n(-c2ccccc2)n1	7.9	6.7
CC(C)Oc1ccc(C(=O)N[C@H](CNC(=O)CN(C)C)Cc2ccc(-c3cn4cccc([C@H](C)O)c4n3)cc2)cc1Cl	14.3	8.8
CCOc1ccn(-c2ccc(F)cc2)c(=O)c1C(=O)Nc1ccc(Oc2ccnc(N)c2Cl)c(F)c1	0	0
CC[C@@H]1[C@H](F)C(=O)N[C@@H]1COc1nccc2cc(C(N)=O)c(OC)cc12	2.9	0.4
CCc1cncnc1N1CCN(Cc2nc3ccc(C(F)(F)F)cc3[nH]2)CC1	0.6	0.6
CCn1c(-c2nonc2N)nc2c(C#CC(C)(C)O)ncc(OC[C@H]3CCCNC3)c21	13	15
CCn1c(-c2nonc2N)nc2cnc(Oc3cccc(NC(=O)c4ccc(OCCN5CCOCC5)cc4)c3)cc21	3.9	3.8
CCn1c(C(=O)N(C2CC2)C2CC2)cc2c3c(ncn3C)c(Nc3cc(C)n(C)n3)nc21	0	0
CCn1cc(-c2ccnc3[nH]c(-c4cccc(CN(C)C)c4)cc23)c(-c2ccc(NC(=O)N(C)C)cc2)n1	1	1
CN(C)CC#Cc1ccc(OCCCc2sc(N3CCc4cccc(C(=O)Nc5nc6ccccc6s5)c4C3)nc2C(=O)O)c(F)c1	6.6	12
CN(c1ncccc1CNc1nc(Nc2ccc3c(c2)CC(=O)N3)ncc1C(F)(F)F)S(C)(=O)=O	3.9	3.9
CN1CCN(C2CCC(n3cc(-c4ccc(Oc5ccccc5)cc4)c4c(N)ncnc43)CC2)CC1 (stereo not given)	8.4	9.3
CNC(=O)c1ccc(C)c(-n2c(C)cc(OCc3ccc(F)cc3F)c(Br)c2=O)c1	0.1	0
CNC(=O)c1ccccc1Nc1nc(Nc2ccc3c(c2OC)CCC[C@H](N2CCN(CCO)CC2)C3)ncc1Cl	6.7	5.6
CNS(=O)(=O)Nc1nccc(Cc2c(C)c3ccc(Oc4ncccn4)cc3oc2=O)c1F	0.5	0.2
CNc1nc(-c2ccc3c(N)n[nH]c3c2)cc(N2C[C@@H](C(=O)NC3CCCCC3)CC[C@H]2C)n1	4.8	3.9
CNc1ncc2cc(-c3cc(NC(=O)NCCC(C)(C)C)c(F)cc3C)c(C)nc2n1	6.3	3.8
CONC(=O)c1ccccc1Nc1cc(Nc2cc(C)nn2C(C)C)ncc1Cl	0.8	0.5
CO[C@@H](C)Cn1c(=O)n(C)c2cnc3ccc(-c4cncc(C(C)(C)O)c4)cc3c21	15.3	15.3
COc1cc2ncnc(Oc3cccc(NC(=O)Nc4cc(C(C)(C)C(F)(F)F)on4)c3)c2cc1OC	5.1	3.2
COc1ccc(Cn2ccc3ccc(C(=O)NO)cc32)cc1	0.8	2.3
COc1ccc2[nH]cc(/C=C3\C(=O)Nc4ccc(NC(=O)CCN5CCCCC5)cc43)c2c1	6.1	4.8
C[C@@H](Oc1cc(-n2cnc3ccc(CN4CCN(C)CC4)cc32)sc1C(N)=O)c1ccccc1C(F)(F)F	11.5	6.3
C[C@@H](Oc1ccc2[nH]nc(/C=C/c3cnn(CCO)c3)c2c1)c1c(Cl)cncc1Cl	9	1.8
C[C@@H]1CN(CC(=O)Nc2ccc3c(c2)Cc2cccc(-c4cc(=O)cc(N5CCOCC5)o4)c2S3)C[C@H](C)O1	3.1	3.4
C[C@@]1(C(=O)Nc2ccc(F)nc2)CCCN1c1nc(Nc2cc(C3CC3)n[nH]2)c2cccn2n1	0	0
C[C@H]1C[C@@H](n2c(Nc3ccc(OC(F)(F)F)cc3)nc3cc(CCC(=O)O)ccc32)CC(C)(C)C1	0	0
C[C@H]1Oc2cc(cnc2N)-c2c(nn(C)c2C#N)CN(C)C(=O)c2ccc(F)cc21	0	2.1
Cc1c(-c2c(-c3ccc(F)o3)sc3ncnc(O[C@H](Cc4ccccc4OCc4ccnn4CC(F)(F)F)C(=O)O)c23)ccc(OCCN2CCN(C)CC2)c1Cl	4.2	3.3
